Tests used:
[1] = biological target: T1, HEP4 (Homo sapiens, UniProt P35408); experiment: Radioligand binding, EP4 receptor; settings: [3H]PGE2 5 nM, HEK-293 membranes
T1 construct: expressed in transfected cells; host or cells: HEK-293
Protocol: (§1) HEK-293 cells stably expressing the human or feline FP receptor, or EP1, EP2, or EP4 receptors were washed with TME buffer, scraped from the bottom of the flasks, and homogenized for 30 sec using a Brinkman PT 10/35 polytron. TME buffer was added to achieve a final 40 ml volume in the centrifuge tubes (the composition of TME is 100 mM TRIS base, 20 mM MgCl2, […]; 10N HCl is added to achieve a pH of 7.4).
(§2) The cell homogenate was centrifuged at 19000 r.p.m. for 20 min at 4° C. using a Beckman Ti-60 rotor. The resultant pellet was resuspended in TME buffer to give a final 1 mg/ml protein concentration, as determined by Biorad assay. Radioligand binding competition assays vs. [^3H-]17-phenyl PGF2α (5 nM) were performed in a 100 μl volume for 60 min. Binding reactions were started by adding plasma membrane fraction. The reaction was terminated by the addition of 4 ml ice-cold TRIS-HCl buffer and rapid filtration through glass fiber GF/B filters using a Brandel cell harvester. The filters were washed 3 times with ice-cold buffer and oven dried for one hour. Non-specific binding was determined with 10 uM unlabeled 17-phenyl PGF2α.
(§3) [^3H-] PGE2 (5 nM; specific activity 180 Ci mmol) was used as the radioligand for EP receptors. Binding studies employing EP1, EP2, EP3, EP4 were performed in duplicate in at least three separate experiments. A 200 μl assay volume was used. Incubations were for 60 min at 25° C. and were terminated by the addition of 4 ml of ice-cold 50 mM TRIS-HCl, followed by rapid filtration through Whatman GF/B filters and three additional 4 ml washes in a cell harvester (Brandel). Non-specific binding determined with 10^−5M of unlabeled PGE2.

[2] = biological target: T2, hEP4/Gqs5 (Homo sapiens, UniProt P35408); experiment: FLIPR calcium signal, hEP4/Gqs5; format: cell-based; settings: HEK-293 (EBNA) cells, read-out: FUNCTIONAL EC50 HEP4
T2 construct: expressed in transfected cells; host or cells: HEK-293 (EBNA)
T2 sequence (P35408 whole entry): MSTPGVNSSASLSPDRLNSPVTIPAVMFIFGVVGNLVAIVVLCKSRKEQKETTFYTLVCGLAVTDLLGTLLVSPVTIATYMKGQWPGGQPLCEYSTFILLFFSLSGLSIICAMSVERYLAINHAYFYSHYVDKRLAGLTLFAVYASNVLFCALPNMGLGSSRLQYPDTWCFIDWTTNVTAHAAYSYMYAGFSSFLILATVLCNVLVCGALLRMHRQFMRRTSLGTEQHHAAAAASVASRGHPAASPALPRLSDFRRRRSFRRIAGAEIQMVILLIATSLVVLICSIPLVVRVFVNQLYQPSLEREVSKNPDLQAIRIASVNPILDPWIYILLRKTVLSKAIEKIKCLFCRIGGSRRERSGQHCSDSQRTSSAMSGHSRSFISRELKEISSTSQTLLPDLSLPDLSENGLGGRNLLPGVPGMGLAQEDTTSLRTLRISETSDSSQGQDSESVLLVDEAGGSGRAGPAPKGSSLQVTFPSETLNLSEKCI
Protocol: (§4) HEK-293 (EBNA) cells, stably expressing one type or subtype of recombinant human prostaglandin receptors (prostaglandin receptors expressed: hDP/Gqs5; hEP1; hEP2/Gqs5; hEP3A/Gqi5; hEP4/Gqs5; hFP; hIP; hTP), were cultured in 100 mm culture dishes in high-glucose DMEM medium containing 10% fetal bovine serum, 2 mM 1-glutamine, 250 μg/ml geneticin (G418) and 200 μg/ml hygromycin B as selection markers, and 100 units/ml penicillin G, 100 μg/ml streptomycin and 0.25 μg/ml amphotericin B. • (b) Calcium Signal Studies on the FLIPR™
(§5) Cells were seeded at a density of 5×10^4 cells per well in Biocoat® Poly-D-lysine-coated black-wall, clear-bottom 96-well plates (Becton-Dickinson) and allowed to attach overnight in an incubator at 37° C. Cells were then washed two times with HBSS-HEPES buffer (Hanks Balanced Salt Solution without bicarbonate and phenol red, 20 mM HEPES, pH 7.4) using a Denley Cellwash plate washer (Labsystems). After 45 minutes of dye-loading in the dark, using the calcium-sensitive dye Fluo-4 AM at a final concentration of 2 μM, plates were washed four times with HBSS-HEPES buffer to remove excess dye leaving 100 μl in each well. Plates were re-equilibrated to 37° C. for a few minutes.
(§6) Cells were excited with an Argon laser at 488 nm, and emission was measured through a 510–570 nm bandwidth emission filter (FLIPR™, Molecular Devices, Sunnyvale, Calif.). Drug solution was added in a 50 μl volume to each well to give the desired final concentration. The peak increase in fluorescence intensity was recorded for each well. On each plate, four wells each served as negative (HBSS-HEPES buffer) and positive controls (standard agonists: BW245C (hDP); PGE2 (hEP1; hEP2/Gqs5; hEP3A/Gqi5; hEP4/Gqs5); PGF2α (hFP); carbacyclin (hIP); U46619 (hTP), depending on receptor). The peak fluorescence change in each drug-containing well was then expressed relative to the controls.
(§7) Compounds were tested in a high-throughput (HTS) or concentration-response (CoRe) format. In the HTS format, forty-four compounds per plate were examined in duplicates at a concentration of 10^−5 M. To generate concentration-response curves, four compounds per plate were tested in duplicates in a concentration range between 10^−5 and 10^−11 M. The duplicate values were averaged. In either, HTS or CoRe format each compound was tested on at least 3 separate plates using cells from different passages to give an n≧3.

[3] = biological target: T3, hEP3A/Gqi5 (Homo sapiens, UniProt P43115); experiment: FLIPR calcium signal, hEP3A/Gqi5; format: cell-based; settings: HEK-293 (EBNA) cells, read-out: FUNCTIONAL EC50 HEP3A
T3 construct: expressed in transfected cells; host or cells: HEK-293 (EBNA)
T3 sequence (P43115 1-390): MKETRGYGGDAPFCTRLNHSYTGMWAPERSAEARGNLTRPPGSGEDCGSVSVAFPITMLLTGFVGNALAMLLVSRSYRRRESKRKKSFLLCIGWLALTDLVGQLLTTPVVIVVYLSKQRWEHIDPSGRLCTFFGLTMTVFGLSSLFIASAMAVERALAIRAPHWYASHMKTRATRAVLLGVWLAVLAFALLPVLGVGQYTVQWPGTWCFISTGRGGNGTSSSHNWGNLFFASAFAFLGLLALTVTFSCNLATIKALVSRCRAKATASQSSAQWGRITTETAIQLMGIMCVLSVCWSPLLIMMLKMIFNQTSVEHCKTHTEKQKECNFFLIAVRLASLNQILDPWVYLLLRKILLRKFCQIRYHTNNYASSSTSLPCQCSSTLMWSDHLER
Protocol: as §4, §5, §6, §7

[4] = biological target: T4, hTP (Homo sapiens, UniProt P21731); experiment: FLIPR calcium signal, hTP; format: cell-based; settings: HEK-293 (EBNA) cells, read-out: FUNCTIONAL EC50 HTP
T4 construct: expressed in transfected cells; host or cells: HEK-293 (EBNA)
T4 sequence (P21731 1-343): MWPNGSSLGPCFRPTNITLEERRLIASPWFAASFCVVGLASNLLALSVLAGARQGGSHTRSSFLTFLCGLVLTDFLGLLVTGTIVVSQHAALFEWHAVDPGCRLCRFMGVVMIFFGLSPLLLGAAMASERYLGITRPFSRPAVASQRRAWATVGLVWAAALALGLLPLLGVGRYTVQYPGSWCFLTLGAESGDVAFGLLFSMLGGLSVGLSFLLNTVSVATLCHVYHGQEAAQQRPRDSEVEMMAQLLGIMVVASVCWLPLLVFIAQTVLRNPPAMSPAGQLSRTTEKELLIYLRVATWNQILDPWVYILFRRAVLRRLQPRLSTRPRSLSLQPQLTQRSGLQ
Protocol: as §4, §5, §6, §7

[5] = biological target: T5, HEP3D (Homo sapiens, UniProt P43115); experiment: Radioligand binding, EP3 receptor; settings: [3H]PGE2 5 nM
T5 sequence (P43115 1-374 isoform P43115-4): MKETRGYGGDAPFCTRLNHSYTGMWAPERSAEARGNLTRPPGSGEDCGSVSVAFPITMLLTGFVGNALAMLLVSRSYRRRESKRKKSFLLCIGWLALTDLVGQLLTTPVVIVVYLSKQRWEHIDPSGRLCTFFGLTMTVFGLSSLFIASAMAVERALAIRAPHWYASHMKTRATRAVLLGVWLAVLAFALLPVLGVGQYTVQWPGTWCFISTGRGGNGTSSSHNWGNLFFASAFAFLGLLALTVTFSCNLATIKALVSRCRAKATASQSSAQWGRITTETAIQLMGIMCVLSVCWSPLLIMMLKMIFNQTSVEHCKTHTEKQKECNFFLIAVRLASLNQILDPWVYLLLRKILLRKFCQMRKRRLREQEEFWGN
Protocol: as §1, §2, §3

T1 sequence (P35408 whole entry): as the sequence (P35408 whole entry) above

| SMILES | IC50 [1] | EC50 [2] | EC50 [3] | EC50 [4] | IC50 [5] |
| --- | --- | --- | --- | --- | --- |
| CC(O)(/C=C/[C@H]1CCC(=O)[C@@H]1SCCCSCC(=O)O)CCc1ccc2ccccc2c1 (single isomer, unassigned) [drawing 24] | 96 nM | 1.8 nM | > 10000 nM | > 10000 nM | – |
| CC(O)(/C=C/[C@H]1CCC(=O)[C@@H]1SCCCSCC(=O)O)CCc1ccc2ccccc2c1 (single isomer, unassigned) [drawing 33] | 200 nM | 20 nM | – | > 10000 nM | – |
| COC(=O)CSCCCS[C@H]1C(=O)C[C@@H](CO)[C@@H]1/C=C/C(O)Cc1ccccc1 (single isomer, unassigned) [drawing 43] | 1050 nM | 2090 nM | – | – | – |
| O=C(O)CSCCCS[C@H]1C(=O)C[C@@H](CO)[C@@H]1/C=C/C(O)Cc1ccccc1 (single isomer, unassigned) [drawing 50] | 440 nM | 135 nM | – | – | – |
| COC(=O)CSCCCS[C@H]1C(=O)C[C@@H](CO)[C@@H]1/C=C/C(O)CCc1cc2ccccc2s1 (stereo partly drawn) [drawing 29, {3-[(1R,2S,3R)-2-((E)-5-Benzo[b]thiophen-2-yl-3-hydroxy-pent-1-enyl)-3-hydroxymethyl-5-oxo-cyclopentylsulfanyl]-propylsulfanyl}-acetic acid methyl ester] | 2100 nM | 7940 nM | – | – | – |
| COC(=O)CSCCCS[C@H]1C(=O)C[C@@H](CO)[C@@H]1/C=C/C(O)CCc1cc2ccccc2s1 (stereo partly drawn) [drawing 30, {3-[(1R,2S,3R)-2-((E)-5-Benzo[b]thiophen-2-yl-3-hydroxy-pent-1-enyl)-3-hydroxymethyl-5-oxo-cyclopentylsulfanyl]-propylsulfanyl}-acetic acid methyl ester] | 1900 nM | > 10000 nM | – | – | – |
| COC(=O)CSCCCS[C@H]1C(=O)CC[C@@H]1/C=C/C(O)CCc1ccc2ccccc2c1 (stereo partly drawn) [drawing 34, {3-[(1R,2R)-2-((E)-3-Hydroxy-5-naphthalen-2-yl-pent-1-enyl)-5-oxo-cyclopentylsulfanyl]-propylsulfanyl}-acetic acid methyl ester] | 300 nM | 0.5 nM | – | – | – |
| COC(=O)CSCCCS[C@H]1C(=O)CC[C@@H]1/C=C/C(O)CCc1ccc2ccccc2c1 (stereo partly drawn) [drawing 35, {3-[(1R,2R)-2-((E)-3-Hydroxy-5-naphthalen-2-yl-pent-1-enyl)-5-oxo-cyclopentylsulfanyl]-propylsulfanyl}-acetic acid methyl ester] | 200 nM | 0.6 nM | – | – | – |
| O=C(O)CSCCCS[C@H]1C(=O)C[C@@H](CO)[C@@H]1/C=C/C(O)CCc1ccc2ccccc2c1 (stereo partly drawn) [drawing 40, {3-[(1R,2S,3R)-3-Hydroxymethyl-2-((E)-3-hydroxy-5-naphthalen-2-yl-pent-1-enyl)-5-oxo-cyclopentylsulfanyl]-propylsulfanyl}-acetic acid] | 1000 nM | 465 nM | – | – | – |
| COC(=O)CSCCCS[C@H]1C(=O)CC[C@@H]1/C=C/C(C)(O)CCc1ccc2ccccc2c1 (stereo partly drawn) [{3-[(1R,2R)-2-((E)-3-Hydroxy-3-methyl-5-naphthalen-2-yl-pent-1-enyl)-5-oxo-cyclopentylsulfanyl]-propylsulfanyl}-acetic acid methyl ester] | 500 nM | 46 nM | – | – | – |

Now from value to compound:

| IC50 [1] | EC50 [2] | EC50 [3] | EC50 [4] | IC50 [5] | SMILES |
| --- | --- | --- | --- | --- | --- |
| 1300 nM | 363 nM | – | – | – | O=C(O)CSCCCS[C@H]1C(=O)C[C@@H](CO)[C@@H]1/C=C/C(O)CCc1cc2ccccc2s1 (single isomer, unassigned) [drawing 31] |
| 100 nM | 463 nM | – | – | – | O=C(O)CSCCCS[C@H]1C(=O)C[C@@H](CO)[C@@H]1/C=C/C(O)CCc1cc2ccccc2s1 (single isomer, unassigned) [drawing 32] |
| 1600 nM | 2340 nM | – | – | – | COC(=O)CSCCCS[C@H]1C(=O)C[C@@H](CO)[C@@H]1/C=C/C(O)CCc1ccc2ccccc2c1 (single isomer, unassigned) [drawing 38] |
| 195 nM | 106 nM | – | – | – | COC(=O)CSCCCS[C@H]1C(=O)C[C@@H](CO)[C@@H]1/C=C/C(O)Cc1ccccc1 (single isomer, unassigned) [drawing 42] |
| 141 nM | 15 nM | – | – | – | COC(=O)CSCCCS[C@H]1C(=O)CC[C@@H]1/C=C/C(O)Cc1ccccc1 (single isomer, unassigned) [drawing 45] |
| 55 nM | 60 nM | > 10000 nM | – | > 10000 nM | O=C(O)CSCCCS[C@H]1C(=O)CC[C@@H]1/C=C/C(O)Cc1ccccc1 (single isomer, unassigned) [drawing 47] |
| 300 nM | 7.8 nM | – | – | – | COC(=O)CSCCCS[C@H]1C(=O)CC[C@@H]1/C=C/C(O)CCc1cc2ccccc2s1 (stereo partly drawn) [drawing 27, {3-[(1R,2R)-2-((E)-5-Benzo[b]thiophen-2-yl-3-hydroxy-pent-1-enyl)-5-oxo-cyclopentylsulfanyl]-propylsulfanyl}-acetic acid methyl ester] |
| 83 nM | – | – | – | > 10000 nM | COC(=O)CSCCCS[C@H]1C(=O)CC[C@@H]1/C=C/C(O)Cc1ccc2ccccc2c1 (stereo partly drawn) [{3-[(1R,2R)-2-((E)-3-Hydroxy-4-naphthalen-2-yl-but-1-enyl)-5-oxo-cyclopentylsulfanyl]-propylsulfanyl}-acetic acid methyl ester] |

Source: patent US7183324B2, “2,3,4-substituted cyclopentanones as therapeutic agents” (Allergan, Inc., priority 2004, dated 2007)
